Earlier results in PubChem BioAssay AID1259409 (Chemical Carcinogenesis Research Information System (CCRIS), 2018).

System: rodent chemically induced tumor inhibition, incidence and multiplicity
Experiment: CCRIS tumor inhibitor studies
Settings: Route [Inhibitor]: ORAL, Promoter: NONE USED

Question: For CC1=C(/C=C/C(C)=C/C=C/C(C)=C/C(=O)Nc2ccc(O)cc2)C(C)(C)CCC1, which “tumour outcome (control, treated, inhibition, significance)” value (Carcinogen: METHYLNITROSOUREA, 684-93-5, Dose [Inhibitor]: 0, 782 MG/KG DIET IN VEHICLE 2 MO PRIOR TO CARCINOGEN DOSE AND CONTINUED UNTIL CARCINOGEN ADMINISTRATION (STUDY DURATION, Species: RAT, Strain/Sex: CD-1/FEMALE, Target Tissue: Type of Lesion: MAMMARY GLAND: BENIGN TUMOR, Dose [Carcinogen]: 50 MG/KG BW ONCE) is on record?
Answer: Its value is 10%, 14%, -40%, not calculated.

Question: And the “tumour outcome (control, treated, inhibition, significance)” value (Carcinogen: N-BUTYL-N(4-HYDROXYBUTYL)NITROSAMINE, 3817-11-6, Dose [Inhibitor]: 0, 156 MG/KG DIET FOR 6 MO BEGINNING 1 WK PRIOR TO CARCINOGEN TREATMENT (STUDY DURATION: 6 MO), Species: MOUSE, Strain/Sex: BDF/MALE, Target Tissue: Type of Lesion: URINARY BLADDER: CARCINOMA, Dose [Carcinogen]: 7.5 MG IN 0.1 ML ETHANOL:WATER (20:80) 1/WK FOR 8 WK)?
Answer: The value was 27/70 (39%), 31/67 (46%), -18%, not calculated.

Question: And the “tumour outcome (control, treated, inhibition, significance)” value (Carcinogen: N-BUTYL-N-(4-HYDROXYBUTYL)NITROSAMINE, 3817-11-6, Dose [Inhibitor]: 0, 156 MG/KG DIET BEGINNING 1 WK PRIOR TO CARCINOGEN TREATMENT AND CONTINUING FOR DURATION OF STUDY (STUDY DURATION: 180, Species: MOUSE, Strain/Sex: BDF/MALE, Target Tissue: Type of Lesion: BLADDER: CARCINOMA, Dose [Carcinogen]: 7.5 MG IN 0.1 ML OF ETHANOL:WATER (20:80) 1/WK FOR 8 WK)?
Answer: Its value is 25/63 (40%), 27/70 (39%), 3%, not significant.

Question: And the “tumour outcome (control, treated, inhibition, significance)” value (Carcinogen: N-BUTYL-N-(4-HYDROXYBUTYL)NITROSAMINE, 3817-11-6, Dose [Inhibitor]: 0, 313 MG/KG DIET BEGINNING 1 WK PRIOR TO CARCINOGEN TREATMENT AND CONTINUING FOR DURATION OF STUDY (STUDY DURATION: 180, Species: MOUSE, Strain/Sex: BDF/MALE, Target Tissue: Type of Lesion: BLADDER: CARCINOMA, Dose [Carcinogen]: 7.5 MG IN 0.1 ML OF ETHANOL:WATER (20:80) 1/WK FOR 8 WK)?
Answer: Its value is 28/65 (43%), 20/67 (30%), 30%, not significant.

Question: What about the “tumour outcome (control, treated, inhibition, significance)” value (Carcinogen: N-BUTYL-N-(4-HYDROXYBUTYL)NITROSAMINE, 3817-11-6, Dose [Inhibitor]: 0, 313 MG/KG DIET FOR 6 MO BEGINNING 1 WK PRIOR TO CARCINOGEN TREATMENT (STUDY DURATION: 6 MO), Species: MOUSE, Strain/Sex: BDF/MALE, Target Tissue: Type of Lesion: URINARY BLADDER: CARCINOMA, Dose [Carcinogen]: 7.5 MG IN 0.1 ML ETHANOL:WATER (20:80) 1/WK FOR 8 WK) of the same compound?
Answer: The value was 30/73 (41%), 28/67 (42%), -2%, not calculated.

Question: And the “tumour outcome (control, treated, inhibition, significance)” value (Carcinogen: N-BUTYL-N-(4-HYDROXYBUTYL)NITROSAMINE, 3817-11-6, Dose [Inhibitor]: 1.5 MMOL/KG DIET DAILY FOR 153 D STARTING ONE WK AFTER THE FINAL CARCINOGEN DOSE (STUDY DURATION: 210 D), Species: MOUSE, Strain/Sex: BDF/MALE, Target Tissue: Type of Lesion: URINARY BLADDER: TRANSITIONAL CELL CARCINOMA, Dose [Carcinogen]: 7.5 MG 1/WK FOR 8 WK)?
Answer: Its value is 35/99 (35%), 21/100 (21%), 40%, p<0.05.

Question: What about the “tumour outcome (control, treated, inhibition, significance)” value (Carcinogen: N-BUTYL-N-(4-HYDROXYBUTYL)NITROSAMINE, 3817-11-6, Dose [Inhibitor]: 1.5 MMOL/KG IN DIET FOR 153 D STARTING 1 WK AFTER LAST CARCINOGEN DOSE (STUDY DURATION: 210 D), Species: MOUSE, Strain/Sex: DBF1/MALE, Target Tissue: Type of Lesion: URINARY BLADDER: TRANSITIONAL CELL CARCINOMA, Dose [Carcinogen]: 7.5 MG 1/WK FOR 8 WK) of the same compound?
Answer: Its value is 35/99 (35%), 21/100 (21%), 40%, p<0.05.

Question: What about the “tumour outcome (control, treated, inhibition, significance)” value (Carcinogen: N-BUTYL-N-(4-HYDROXYBUTYL)NITROSAMINE, 3817-11-6, Dose [Inhibitor]: 391 MG/KG DIET STARTING 1 WK AFTER FINAL CARCINOGEN DOSE AND CONTINUING THROUGH END OF STUDY (STUDY DURATION: 205 D), Species: MOUSE, Strain/Sex: DBF1/MALE, Target Tissue: Type of Lesion: URINARY BLADDER: TRANSITIONAL CELL CARCINOMA, Dose [Carcinogen]: 7.5 MG 1/WK FOR 8 WK) of the same compound?
Answer: Its value is 19/50 (38%), 9/49 (18%), 53%, p<0.05.

Question: And the “tumour outcome (control, treated, inhibition, significance)” value (Carcinogen: N-BUTYL-N-(4-HYDROXYBUTYL)NITROSAMINE, 3817-11-6, Dose [Inhibitor]: 391 MG/KG IN DIET BEGINNING 1 WK AFTER FINAL CARCINOGEN DOSE AND CONTINUING THROUGH END OF STUDY (STUDY DURATION: 205 D), Species: MOUSE, Strain/Sex: DBF1/MALE, Target Tissue: Type of Lesion: URINARY BLADDER: TRANSITIONAL CELL CARCINOMA, Dose [Carcinogen]: 7.5 MG 1/WK FOR 8 WK)?
Answer: The value was 19/50 (38%), 9/49 (18%), 53%, p<0.05.

Question: What about the “tumour outcome (control, treated, inhibition, significance)” value (Carcinogen: N-ETHYL-N-NITROSOUREA, 759-73-9, Dose [Inhibitor]: 0, 98 MG/KG DIET FOR DURATION OF STUDY BEGINNING POST CARCINOGEN DOSE (STUDY DURATION: 35 WK), Species: MOUSE, Strain/Sex: PIM/MALE, Target Tissue: Type of Lesion: LYMPHATIC SYSTEM: LYMPHOMA, Dose [Carcinogen]: 50 MG/KG BW ONCE) of the same compound?
Answer: Its value is 21/40 (53%), 13/30 (43%), 19%, not significant.

Question: And the “tumour outcome (control, treated, inhibition, significance)” value (Carcinogen: N-ETHYL-N-NITROSOUREA, 759-73-9, Dose [Inhibitor]: 0, 196 MG/KG DIET FOR DURATION OF STUDY BEGINNING POST CARCINOGEN DOSE (STUDY DURATION: 35 WK), Species: MOUSE, Strain/Sex: PIM/MALE, Target Tissue: Type of Lesion: LYMPHATIC SYSTEM: LYMPHOMA, Dose [Carcinogen]: 50 MG/KG BW ONCE)?
Answer: The value was 21/40 (53%), 15/29 (52%), 2%, not significant.

Question: And the “tumour outcome (control, treated, inhibition, significance)” value (Carcinogen: N-ETHYL-N-NITROSOUREA, 759-73-9, Dose [Inhibitor]: 0, 391 MG/KG DIET FOR DURATION OF STUDY BEGINNING POST CARCINOGEN DOSE (STUDY DURATION: 35 WK), Species: MOUSE, Strain/Sex: PIM/MALE, Target Tissue: Type of Lesion: LYMPHATIC SYSTEM: LYMPHOMA, Dose [Carcinogen]: 50 MG/KG BW ONCE)?
Answer: The value was 21/40 (53%), 16/40 (40%), 26%, not significant.
